Measurements: US20220187282A1, “CARDIOMYOCYTE PROLIFERATION” (The Council of the Queensland Institute of Medical Research, priority 2019, published 2022)
Where two headings read alike, the source gives them in different places.

Assays:
Format in all cases: biochemical
[1] = target: kinases (Homo sapiens, UniProt P09619); conditions: PDGFRB *Mn* FRET-Z-Lyte SP; Test Conc(μM):ATP Conc(μM) 1:100
[2] = target: kinases (Homo sapiens, UniProt P80192); conditions: MAP3K9 (MLK1) FRET-Z-Lyte SP; Test Conc(μM):ATP Conc(μM) 1:75
[3] = target: T1, kinases (Homo sapiens, UniProt O15530)
T1 sequence (O15530 1-556): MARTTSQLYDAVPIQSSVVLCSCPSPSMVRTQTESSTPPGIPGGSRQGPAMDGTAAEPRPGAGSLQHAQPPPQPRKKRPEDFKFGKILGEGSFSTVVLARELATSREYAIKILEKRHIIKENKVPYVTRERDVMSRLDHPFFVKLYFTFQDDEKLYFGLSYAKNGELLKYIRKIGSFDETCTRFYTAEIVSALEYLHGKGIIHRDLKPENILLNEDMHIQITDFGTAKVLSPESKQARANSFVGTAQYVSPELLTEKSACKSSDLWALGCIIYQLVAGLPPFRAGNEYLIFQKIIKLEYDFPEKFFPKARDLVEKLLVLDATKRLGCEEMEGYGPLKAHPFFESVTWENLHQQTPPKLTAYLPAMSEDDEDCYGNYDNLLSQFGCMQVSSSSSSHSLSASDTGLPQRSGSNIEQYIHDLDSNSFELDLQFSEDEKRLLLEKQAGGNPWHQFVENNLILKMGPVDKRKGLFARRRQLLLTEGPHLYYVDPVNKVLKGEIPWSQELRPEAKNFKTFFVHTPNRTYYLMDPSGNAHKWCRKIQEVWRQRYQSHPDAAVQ

[4] = target: kinases (Homo sapiens, UniProt O94806); conditions: PRKCN (PKD3) FRET-Z-Lyte SP; Test Conc(μM):ATP Conc(μM) 1:25
[5] = target: kinases (Homo sapiens, UniProt P04626); conditions: ERBB2 (HER2) *Mn* Z-Lyte SP; Test Conc(μM):ATP Conc(μM) 1:10
[6] = target: kinases (Homo sapiens, UniProt O00141); conditions: SGK (SGK1) FRET-Z-Lyte SP; Test Conc(μM):ATP Conc(μM) 1:25
[7] = target: kinases (Homo sapiens, UniProt Q9Y6M4); conditions: CSNK1G3 (CK1gamma3) Z-Lyte SP; Test Conc(μM):ATP Conc(μM) 1:5
[8] = target: kinases (Homo sapiens, UniProt P78527); conditions: DNA-PK FRET-Z-Lyte SP; Test Conc(μM):ATP Conc(μM) 1:25
[9] = target: kinases (Homo sapiens, UniProt Q9Y2K2); conditions: SIK3 FRET-Lantha SP; Test Conc(μM) 1
[10] = target: kinases (Homo sapiens, UniProt P24941)
[11] = target: kinases (Homo sapiens, UniProt O75676); conditions: RPS6KA4 (MSK2) FRET-Z-Lyte SP; Test Conc(μM):ATP Conc(μM) 1:10
[12] = target: kinases (Homo sapiens, UniProt Q9UM73); conditions: ALK FRET-Z-Lyte SP; Test Conc(μM):ATP Conc(μM) 1:25
[13] = target: kinases (Homo sapiens, UniProt Q9NWZ3); conditions: IRAK4 *Mn* FRET-Z-Lyte SP; Test Conc(μM):ATP Conc(μM) 1:25
[14] = target: kinases (Homo sapiens, UniProt Q9H792); conditions: PEAK1 FRET-Z-Lyte SP; Test Conc(μM):ATP Conc(μM) 1:50
[15] = target: kinases (Homo sapiens, UniProt Q32MK0); conditions: MYLK3 Hu Bind FRET-Lantha SP; Test Conc(μM) 1
[16] = target: kinases (Homo sapiens, UniProt Q00536); conditions: CDK16(PCTK1)/cyclinY Lantha SP; Test Conc(μM) 1
[17] = target: kinases (Homo sapiens, UniProt Q96PY6); conditions: NEK1 FRET-Z-Lyte SP; ATP Conc(μM):Test Conc(μM) 1:100
[18] = target: kinases (Homo sapiens, UniProt Q8TDX7); conditions: NEK7 FRET-Z-Lyte SP; Test Conc(μM):ATP Conc(μM) 1:50
[19] = target: kinases (Homo sapiens, UniProt P53778); conditions: MAPK12 (p38 gamma) Z-Lyte SP; Test Conc(μM):ATP Conc(μM) 1:10
[20] = target: kinases (Homo sapiens, UniProt P30530); conditions: AXL FRET-Z-Lyte SP; Test Conc(μM):ATP Conc(μM) 1:75
[21] = target: kinases (Homo sapiens, UniProt Q00537); conditions: CDK17/cyclin Y FRET-Z-Lyte SP; Test Conc(μM):ATP Conc(μM) 1:50
[22] = target: kinases (Homo sapiens, UniProt O14936); conditions: CASK FRET-Lantha SP; Test Conc(μM) 1
[23] = target: kinases (Homo sapiens, UniProt Q9UHD2); conditions: TBK1 FRET-Z-Lyte SP; Test Conc(μM):ATP Conc(μM) 1:25
[24] = PDK1 (Direct) FRET-Z-lyte SP, Test Conc(μM):ATP Conc(μM) 1:25
[25] = PDK1 Cascade FRET-Z-Lyte SP, Test Conc(μM):ATP Conc(μM) 1:100
[26] = CDK2/Cyclin E1 FRET-Lantha SP, Test Conc(μM) 1
[27] = CDK2/Cyclin O FRET-Lantha SP, Test Conc(μM) 1
[28] = CDK2/cyclin A1 FRET-Lantha SP, Test Conc(μM) 1
[29] = CDK2/cyclin A FRET-Z-Lyte SP, Test Conc(μM):ATP Conc(μM) 1:25

Sequence of kinases (Homo sapiens, UniProt O14936) (O14936 whole entry): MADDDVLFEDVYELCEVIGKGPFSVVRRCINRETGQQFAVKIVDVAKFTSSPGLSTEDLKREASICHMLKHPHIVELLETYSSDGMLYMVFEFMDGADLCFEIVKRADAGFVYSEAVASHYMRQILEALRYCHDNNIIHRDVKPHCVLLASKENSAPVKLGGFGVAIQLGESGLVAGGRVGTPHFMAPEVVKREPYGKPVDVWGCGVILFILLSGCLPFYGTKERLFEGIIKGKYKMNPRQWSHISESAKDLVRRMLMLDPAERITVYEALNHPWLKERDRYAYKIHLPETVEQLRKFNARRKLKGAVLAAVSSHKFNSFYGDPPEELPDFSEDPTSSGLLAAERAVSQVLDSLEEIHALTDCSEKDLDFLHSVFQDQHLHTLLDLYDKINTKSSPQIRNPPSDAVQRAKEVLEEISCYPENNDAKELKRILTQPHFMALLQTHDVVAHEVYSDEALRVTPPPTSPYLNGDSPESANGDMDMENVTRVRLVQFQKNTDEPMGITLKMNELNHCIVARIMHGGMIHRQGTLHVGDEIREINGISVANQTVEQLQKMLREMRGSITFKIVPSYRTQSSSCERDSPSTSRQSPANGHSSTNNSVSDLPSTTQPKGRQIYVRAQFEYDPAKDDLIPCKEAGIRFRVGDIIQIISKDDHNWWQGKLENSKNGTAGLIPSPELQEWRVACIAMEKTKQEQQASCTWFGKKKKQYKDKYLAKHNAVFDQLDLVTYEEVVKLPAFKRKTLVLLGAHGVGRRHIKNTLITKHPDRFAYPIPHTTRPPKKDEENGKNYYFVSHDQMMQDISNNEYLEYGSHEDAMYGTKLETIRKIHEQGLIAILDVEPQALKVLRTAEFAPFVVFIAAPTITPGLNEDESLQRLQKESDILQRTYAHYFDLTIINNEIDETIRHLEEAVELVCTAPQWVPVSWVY
Sequence of kinases (Homo sapiens, UniProt Q9Y6M4) (Q9Y6M4 whole entry): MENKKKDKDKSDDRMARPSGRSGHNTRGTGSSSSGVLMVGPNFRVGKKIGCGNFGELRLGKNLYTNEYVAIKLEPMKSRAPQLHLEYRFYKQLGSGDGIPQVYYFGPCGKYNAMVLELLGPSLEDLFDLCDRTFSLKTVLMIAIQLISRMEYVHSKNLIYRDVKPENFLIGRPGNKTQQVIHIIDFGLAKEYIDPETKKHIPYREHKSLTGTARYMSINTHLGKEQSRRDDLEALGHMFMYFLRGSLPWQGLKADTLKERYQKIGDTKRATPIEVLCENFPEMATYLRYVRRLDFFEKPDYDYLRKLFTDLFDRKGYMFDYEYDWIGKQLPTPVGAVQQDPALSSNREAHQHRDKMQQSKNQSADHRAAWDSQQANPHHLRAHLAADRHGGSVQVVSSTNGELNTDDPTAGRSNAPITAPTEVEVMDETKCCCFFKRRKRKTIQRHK
Sequence of kinases (Homo sapiens, UniProt P09619) (P09619 33-1106): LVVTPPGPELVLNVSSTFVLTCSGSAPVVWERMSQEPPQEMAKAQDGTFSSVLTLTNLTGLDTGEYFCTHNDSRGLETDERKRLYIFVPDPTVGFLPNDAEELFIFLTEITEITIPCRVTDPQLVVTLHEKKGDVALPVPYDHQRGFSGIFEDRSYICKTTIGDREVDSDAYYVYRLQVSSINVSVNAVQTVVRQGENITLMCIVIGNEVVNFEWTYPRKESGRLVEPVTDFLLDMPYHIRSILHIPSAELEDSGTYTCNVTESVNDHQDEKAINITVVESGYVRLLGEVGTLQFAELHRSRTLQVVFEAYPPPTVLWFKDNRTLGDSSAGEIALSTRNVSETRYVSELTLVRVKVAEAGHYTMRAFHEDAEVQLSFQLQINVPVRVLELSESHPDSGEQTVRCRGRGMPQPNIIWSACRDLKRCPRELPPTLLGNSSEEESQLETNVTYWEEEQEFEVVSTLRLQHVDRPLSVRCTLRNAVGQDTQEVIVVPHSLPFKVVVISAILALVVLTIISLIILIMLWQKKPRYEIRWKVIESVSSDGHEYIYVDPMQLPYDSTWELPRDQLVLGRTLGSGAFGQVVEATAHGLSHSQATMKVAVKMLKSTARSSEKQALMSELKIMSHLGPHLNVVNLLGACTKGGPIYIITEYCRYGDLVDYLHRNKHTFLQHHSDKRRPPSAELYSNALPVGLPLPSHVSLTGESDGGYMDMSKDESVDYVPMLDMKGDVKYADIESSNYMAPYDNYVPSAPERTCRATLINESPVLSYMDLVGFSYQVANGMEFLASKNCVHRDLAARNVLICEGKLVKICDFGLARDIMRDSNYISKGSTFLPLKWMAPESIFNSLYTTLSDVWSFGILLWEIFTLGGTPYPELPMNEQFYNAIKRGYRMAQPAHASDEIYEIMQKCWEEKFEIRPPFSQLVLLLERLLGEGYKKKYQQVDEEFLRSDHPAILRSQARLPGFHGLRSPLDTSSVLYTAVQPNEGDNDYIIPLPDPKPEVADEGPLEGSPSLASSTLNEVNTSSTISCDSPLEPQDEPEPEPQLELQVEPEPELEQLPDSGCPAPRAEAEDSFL
Sequence of kinases (Homo sapiens, UniProt Q8TDX7) (Q8TDX7 whole entry): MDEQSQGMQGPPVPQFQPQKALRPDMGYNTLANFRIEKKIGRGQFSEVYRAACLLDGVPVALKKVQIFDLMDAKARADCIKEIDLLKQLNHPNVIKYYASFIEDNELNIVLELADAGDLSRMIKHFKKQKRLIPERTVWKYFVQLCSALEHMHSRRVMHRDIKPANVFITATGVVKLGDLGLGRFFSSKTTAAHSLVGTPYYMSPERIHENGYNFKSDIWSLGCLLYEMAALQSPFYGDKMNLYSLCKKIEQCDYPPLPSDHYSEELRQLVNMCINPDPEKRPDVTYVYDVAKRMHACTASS
Sequence of kinases (Homo sapiens, UniProt Q9H792) (Q9H792 whole entry): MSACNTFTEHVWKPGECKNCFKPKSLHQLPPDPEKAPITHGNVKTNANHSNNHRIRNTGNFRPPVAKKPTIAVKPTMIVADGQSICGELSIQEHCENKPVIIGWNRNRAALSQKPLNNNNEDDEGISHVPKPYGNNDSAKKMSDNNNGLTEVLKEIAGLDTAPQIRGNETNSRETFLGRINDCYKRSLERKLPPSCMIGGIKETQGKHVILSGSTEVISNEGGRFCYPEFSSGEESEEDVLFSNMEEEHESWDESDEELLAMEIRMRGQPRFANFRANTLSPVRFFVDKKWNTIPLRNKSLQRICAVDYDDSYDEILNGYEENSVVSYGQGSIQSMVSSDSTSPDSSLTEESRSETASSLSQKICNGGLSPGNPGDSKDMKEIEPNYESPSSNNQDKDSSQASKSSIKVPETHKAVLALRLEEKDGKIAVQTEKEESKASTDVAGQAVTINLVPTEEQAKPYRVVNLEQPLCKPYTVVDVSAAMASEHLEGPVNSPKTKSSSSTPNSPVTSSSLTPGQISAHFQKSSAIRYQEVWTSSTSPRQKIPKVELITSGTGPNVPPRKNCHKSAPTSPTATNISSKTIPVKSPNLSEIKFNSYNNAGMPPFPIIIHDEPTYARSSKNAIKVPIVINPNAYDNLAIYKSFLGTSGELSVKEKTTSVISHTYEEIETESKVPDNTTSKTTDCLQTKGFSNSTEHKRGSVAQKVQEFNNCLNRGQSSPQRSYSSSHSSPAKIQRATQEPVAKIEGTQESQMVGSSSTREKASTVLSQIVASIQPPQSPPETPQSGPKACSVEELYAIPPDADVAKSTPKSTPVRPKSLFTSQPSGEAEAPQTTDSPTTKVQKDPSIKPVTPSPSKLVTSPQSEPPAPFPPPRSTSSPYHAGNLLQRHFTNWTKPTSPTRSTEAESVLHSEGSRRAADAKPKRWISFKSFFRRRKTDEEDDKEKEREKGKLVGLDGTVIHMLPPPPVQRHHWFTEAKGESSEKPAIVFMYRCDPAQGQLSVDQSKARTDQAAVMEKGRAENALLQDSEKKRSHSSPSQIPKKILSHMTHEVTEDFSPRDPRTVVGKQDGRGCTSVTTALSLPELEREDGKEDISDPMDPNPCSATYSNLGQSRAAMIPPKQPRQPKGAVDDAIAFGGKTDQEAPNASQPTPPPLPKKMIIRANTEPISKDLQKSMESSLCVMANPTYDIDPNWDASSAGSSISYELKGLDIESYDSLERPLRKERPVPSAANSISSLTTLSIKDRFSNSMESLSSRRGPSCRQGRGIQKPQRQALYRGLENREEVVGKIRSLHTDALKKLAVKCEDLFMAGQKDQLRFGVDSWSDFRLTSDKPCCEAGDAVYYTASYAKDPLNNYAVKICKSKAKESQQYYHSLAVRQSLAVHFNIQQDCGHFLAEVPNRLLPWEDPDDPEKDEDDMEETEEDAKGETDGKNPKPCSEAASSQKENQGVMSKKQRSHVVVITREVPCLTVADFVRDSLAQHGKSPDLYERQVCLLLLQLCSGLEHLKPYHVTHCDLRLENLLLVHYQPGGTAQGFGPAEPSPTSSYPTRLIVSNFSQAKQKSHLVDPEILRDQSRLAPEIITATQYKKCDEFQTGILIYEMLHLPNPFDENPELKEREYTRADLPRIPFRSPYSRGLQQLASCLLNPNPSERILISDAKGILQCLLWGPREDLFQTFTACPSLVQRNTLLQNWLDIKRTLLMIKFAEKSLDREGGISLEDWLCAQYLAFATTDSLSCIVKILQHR
Sequence of kinases (Homo sapiens, UniProt O00141) (O00141 whole entry): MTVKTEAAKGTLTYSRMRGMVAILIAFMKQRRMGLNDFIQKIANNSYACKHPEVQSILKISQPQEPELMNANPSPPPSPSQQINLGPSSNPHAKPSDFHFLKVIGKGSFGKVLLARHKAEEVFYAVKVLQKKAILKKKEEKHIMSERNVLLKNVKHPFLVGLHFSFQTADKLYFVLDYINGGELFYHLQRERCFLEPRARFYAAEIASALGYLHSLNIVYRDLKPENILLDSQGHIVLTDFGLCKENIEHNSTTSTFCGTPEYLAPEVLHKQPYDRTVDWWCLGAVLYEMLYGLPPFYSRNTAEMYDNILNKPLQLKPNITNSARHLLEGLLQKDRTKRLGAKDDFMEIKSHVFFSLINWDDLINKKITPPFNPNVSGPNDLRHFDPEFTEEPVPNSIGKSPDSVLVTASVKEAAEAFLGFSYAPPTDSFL

Row | SMILES | Mean Inhib (%) [1] [%] | Mean Inhib (%) [2] [%] | Mean Inhib (%) [3, 24] [%] | Mean Inhib (%) [3, 25] [%] | Mean Inhib (%) [4] [%] | Mean Inhib (%) [5] [%] | Mean Inhib (%) [6] [%] | Mean Inhib (%) [7] [%] | Mean Inhib (%) [8] [%] | Mean Inhib (%) [9] [%] | Mean Inhib (%) [10, 26] [%] | Mean Inhib (%) [10, 27] [%] | Mean Inhib (%) [10, 28] [%] | Mean Inhib (%) [10, 29] [%] | Mean Inhib (%) [11] [%] | Mean Inhib (%) [12] [%] | Mean Inhib (%) [13] [%] | Mean Inhib (%) [14] [%] | Mean Inhib (%) [15] [%] | Mean Inhib (%) [16] [%] | further results
1 | Cc1ccc(NC(=O)c2ccnc(N3CCOCC3)c2)cc1Nc1ccnc(N2CC(C)OC(C)C2)n1 (stereo not drawn) [compound 3] | 15.5 | 1.3 | 0.4 | 3.7 | 9.0 | 2.7 | −7.0 | 2.9 | 13.7 | 5.6 | 13.8 | 2.7 | −1.8 | 6.2 | −0.8 | 11.9 | 12.7 | 0.8 | 4.5 | 3.4 | Mean Inhib (%) [17]: 7.0%; Mean Inhib (%) [18]: 7.4%; Mean Inhib (%) [19]: 5.1%; Mean Inhib (%) [20]: −2.7%; Mean Inhib (%) [21]: 0.9%; Mean Inhib (%) [22]: 16.8%; Mean Inhib (%) [23]: −0.8%
2 | Cc1cc(Oc2ccnc(Nc3ccc(S(N)(=O)=O)cc3)c2)c(-c2ccccn2)nc1C [compound 65] | 3.9 | 3.4 | 6.9 | 9.4 | 12.4 | 10.1 | −1.4 | 0.1 | 13.9 | −4.7 | 10.6 | 3.0 | 4.9 | 5.0 | 5.3 | 4.2 | 6.8 | 55.2 | 0.8 | 0.2 | Mean Inhib (%) [17]: 0.2%; Mean Inhib (%) [18]: 6.9%; Mean Inhib (%) [19]: 4.1%; Mean Inhib (%) [20]: 1.1%; Mean Inhib (%) [21]: 9.6%; Mean Inhib (%) [22]: 12.1%; Mean Inhib (%) [23]: 4.2%
